Measurements from PubChem BioAssay AID1417 (Emory University Molecular Libraries Screening Center, 2008).

Biological target: Induced myeloid leukemia cell differentiation protein Mcl-1 (Homo sapiens) (UniProt Q07820)
Experiment: Mcl-1 Noxa peptide disruption concentration-response – biochemical, TR-FRET, dose response (AID 1417)
Details: Mcl-1/Noxa peptide interaction, cell-free TR-FRET (terbium/rhodamine), 2 h; measured here: absolute IC50

Induced myeloid leukemia cell differentiation protein Mcl-1 (Homo sapiens), sequence (Q07820 whole entry, looked up): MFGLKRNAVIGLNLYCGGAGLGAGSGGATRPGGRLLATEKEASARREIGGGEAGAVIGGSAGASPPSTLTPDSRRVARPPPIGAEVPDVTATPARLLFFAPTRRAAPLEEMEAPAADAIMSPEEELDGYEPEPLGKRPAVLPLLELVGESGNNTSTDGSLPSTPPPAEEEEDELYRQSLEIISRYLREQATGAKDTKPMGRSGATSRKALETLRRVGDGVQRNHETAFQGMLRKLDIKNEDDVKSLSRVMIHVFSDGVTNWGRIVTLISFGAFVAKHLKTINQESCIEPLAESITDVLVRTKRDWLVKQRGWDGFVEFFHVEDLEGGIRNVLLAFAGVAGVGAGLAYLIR

| Structure (SMILES) | IC50 [nM] |
| --- | --- |
| Cc1sc(NC(=O)c2sc3nc4c(C)cccc4cc3c2N)c(C#N)c1C | < 400 |
| CCOC(=O)NNc1ccc2nonc2c1[N+](=O)[O-] | < 400 |
| O=C(/C=C/c1ccc(Cl)c([N+](=O)[O-])c1)Nc1ccc(N2CCCC2)cc1 | 8300 |
| Cc1nnc(Sc2cc(NCCCO)c([N+](=O)[O-])c3nonc23)s1 | 1050 |
| Cc1ccc2c(c1Cl)NC(C(=O)O)C1CC(Sc3ccccc3[N+](=O)[O-])C(Cl)C21 (centres undefined) | 2520 |
| COc1ccc(NC(=O)CN2C(=O)/C(=C3\SC(=S)N(C4CCS(=O)(=O)C4)C3=O)c3ccccc32)cc1 (centres undefined) | 2540 |
| CCOC(=O)c1c(C)oc2c1c(CN1CCN(CCO)CC1)c(O)c1ccccc12 | < 400 |
| Cc1cccc(C(=O)N=c2c(C#N)cc3c(=O)n4cccc(C)c4nc3n2Cc2ccco2)c1 | 4260 |
| CNC(=S)Nc1sc2c(c1C(=O)OC)CCC2 | 1320 |
| CN(C)c1ccc(NC(=O)CN2C(=O)CN=C(c3ccccc3)c3cc(Cl)ccc32)cc1 | > 54000 |
| CN(C)c1ccc(NC(=O)Nc2cccc(Cl)c2)cc1 | < 400 |
| Cc1cccn2c(=O)c3cc(C(=O)NCc4ccco4)c(=N)n(CCc4ccccc4)c3nc12 | 3150 |
| CC[C@H](C)NC(=O)c1ccc(Cn2c(=S)[nH]c3c([nH]c4ccc(OC)cc43)c2=O)cc1 | 6170 |
| O=C(Nc1nccs1)c1cccc(N2C(=O)c3cccc4c([N+](=O)[O-])ccc(c34)C2=O)c1 | > 54000 |
| Cc1ccc(C(=O)OCC(=O)Nc2ccc(N(C)C)cc2)cc1NC(=O)c1ccco1 | > 54000 |
| CCOC(=O)C1CCN(C(=O)Nc2ccc3nc(-c4ccco4)c(-c4ccco4)nc3c2)CC1 | 932 |
| Oc1c(Br)cc(C=Nc2ccc3nc(-c4ccccc4)[nH]c3c2)c(O)c1Br | 594 |
| CCOC(=O)C1=C(O)/C(=C/c2cc(OC)c(O)c(OC)c2)SC1=Nc1ccc(OC)cc1 | > 54000 |
| c1coc(-c2nc3ccccc3nc2-c2ccco2)c1 | 5170 |
| CN(C)c1ccc(NC(=O)c2cccc(N3C(=O)C4C5C=CC(C5)C4C3=O)c2)cc1 (centres undefined) | > 54000 |
| CC(C)c1ccc(Nc2nnc(SCC(=O)c3nnc(-c4ccccc4)o3)s2)cc1 | 1920 |
| CC12CN3CC(C)(CN(C1)C3c1ccccc1Cl)C2O (centres undefined) | > 54000 |
| CCNc1nc(NCC)nc(C(=O)NN)n1 | < 400 |
| CCN(CC)c1ccc(/C=N/N2CCN(Cc3ccccc3)CC2)cc1 | > 54000 |
| O=C1CC(=O)c2c1cccc2[N+](=O)[O-] | 2560 |
| O=C(O)CSc1cc(C(=O)c2cc(F)ccc2O)cn2c(=O)c3c(-c4ccccc4)csc3nc12 | 2120 |
| COc1cc(C(Nc2ccccn2)c2ccc3ccc(C)nc3c2O)cc(OC)c1O (centres undefined) | < 400 |

| Structure (SMILES) | IC50 [nM] |
| --- | --- |
| Cc1c(NS(=O)(=O)c2cc(NC(=O)CCN3CCCC(C)C3)ccc2Cl)c(=O)n(-c2ccccc2)n1C (centres undefined) | > 54000 |
| O=c1cc(-c2ccccc2Cl)oc2c(NS(=O)(=O)c3cc(Cl)cc(Cl)c3O)ccc(O)c12 | 2410 |
| CN(C)c1ccc(NC(=O)Nc2ccc3snnc3c2)cc1 | < 400 |
| COc1cc2cc3c(N)c(C(=O)Nc4sc(C)c(C)c4C#N)sc3nc2cc1OC | 1070 |
| CN(C(=O)COC(=O)c1cc(-c2ccco2)nc2ccccc12)C1CCS(=O)(=O)C1 (centres undefined) | < 400 |
| NC(=O)c1c(Nc2nc3c(F)cccc3s2)sc2c1CCCC2 | < 400 |
| Oc1cccc2cc3cccc(O)c3c(O)c12 | 1960 |
| Oc1ccc(/C=N/NC(=S)Nc2cccnc2)c(O)c1O | < 400 |
| Nc1ccc(Cc2ccc(N)c(O)c2)cc1O | < 400 |
| O=C(COc1cccnc1[N+](=O)[O-])c1ccc(Cl)s1 | 2840 |
| COc1ccc(C(=O)Nc2nc3c(s2)Cc2cc(OC)ccc2-3)cc1 | 4110 |
| CC(/C=N\Nc1nnc2c(n1)[nH]c1c(C)cccc12)=C\c1ccco1 | 3570 |
| CN(C)S(=O)(=O)c1cccc(-c2nn(-c3ccccc3)cc2/C=C2\SC(=S)NC2=O)c1 | 480 |
| COc1ccc(CCNC(=O)c2ccc3nc(-c4ccco4)c(-c4ccco4)nc3c2)cc1OC | 4470 |
| O=C1NC(=O)N(Cc2ccc(F)cc2)C(=O)/C1=C\c1ccc([N+](=O)[O-])s1 | 7450 |
| Cn1c(=O)c(C(=O)COC(=O)c2cc(-c3ccco3)nc3ccccc23)c(N)n(Cc2ccccc2)c1=O | < 400 |
| COc1ccc(C(=O)N=c2c(C#N)cc3c(=O)n4cccc(C)c4nc3n2Cc2ccco2)cc1 | 13800 |
| Cc1ccc(/C=c2\sc3nc(-c4ccccc4Br)nn3c2=O)o1 | 4370 |
| O=C(c1ccc2nc(-c3ccco3)c(-c3ccco3)nc2c1)N1CCN(c2ncccn2)CC1 | 12600 |
| O=C(CSc1nnc(-c2ccco2)c(-c2ccco2)n1)c1ccccc1 | 3700 |
| O=C1N=c2ccccc2=C1c1c(O)n(-c2cccc(F)c2)[nH]c1=O | < 400 |
| CC1Oc2cc3c(-c4c(O)cc(O)c5c(O)c6c(cc45)OC(C)C(C)C6=O)c(O)cc(O)c3c(O)c2C(=O)C1C (centres undefined) | < 400 |
| CCOC(=O)c1c(NC(=O)c2cc(-c3ccc(O)cc3)on2)sc(C(C)=O)c1C | 10900 |
| COc1ccc2[nH]c3c(C)c4ccncc4c(C)c3c2c1 | < 400 |
| Nc1cccnc1Sc1cc(Cl)c(Cl)cc1Cl | > 54000 |
| CCS(=O)(=O)N1CCN(C(C)CCc2ccccc2)CC1 (centres undefined) | > 54000 |
| O=c1oc2ccccc2cc1-c1csc(Nc2ccc(O)cc2)n1 | 716 |
